Results on one molecule are retold here after patent publication US20240270762A1, “PENICILLIN-BINDING PROTEIN INHIBITORS” (priority 2021, published 2024).

Converted amounts (≈) assume the structure as drawn. Bounds are passed on as bounds.

For experiment [1], the system named is P. aeruginosa ATCC 27853. The experiment in a line: microbe, parasite or virus in culture. It is filed as cell-based. As to conditions: Pseudomonas aeruginosa, ATCC27853, read-out: Minimum inhibitory concentration, P. aeruginosa ATCC 27853.
In experiment [2] the test system is P. aeruginosa CDC-0110. Description: microbe, parasite or virus in culture. It is filed as cell-based. The conditions noted are these: Pseudomonas aeruginosa, CDC0110, read-out: Minimum inhibitory concentration, P. aeruginosa CDC-0110.
The test system of experiment [3] is P. aeruginosa ATCC 35151. Description: microbe, parasite or virus in culture. It is filed as cell-based. As to conditions: Pseudomonas aeruginosa, ATCC35151, read-out: Minimum inhibitory concentration, P. aeruginosa ATCC 35151.
The subject of experiment [4] is A. baumannii ATCC 17978. The experiment in a line: microbe, parasite or virus in culture. It counts as cell-based. As to conditions: Acinetobacter baumannii, ATCC17978, read-out: Minimum inhibitory concentration (MIC), A. baumannii ATCC 17978.
In experiment [5] the test system is A. baumannii 1258916. Description: microbe, parasite or virus in culture. It is filed as cell-based, Acinetobacter baumannii. As to conditions: Acinetobacter baumannii, 1258916, read-out: Minimum inhibitory concentration (MIC), A. baumannii 1258916.
In experiment [6] the test system is A. baumannii ATCC 19606. The experiment in a line: microbe, parasite or virus in culture. It counts as cell-based. As to conditions: Acinetobacter baumannii, ATCC19606, read-out: Minimum inhibitory concentration (MIC), A. baumannii ATCC 19606.
Experiment [7] addresses T1, PBP3 from Acinetobacter baumannii (ATCC 19606) (Acinetobacter baumannii, UniProt A0ABX6CK25).
T1 sequence (A0ABX6CK25 64-610): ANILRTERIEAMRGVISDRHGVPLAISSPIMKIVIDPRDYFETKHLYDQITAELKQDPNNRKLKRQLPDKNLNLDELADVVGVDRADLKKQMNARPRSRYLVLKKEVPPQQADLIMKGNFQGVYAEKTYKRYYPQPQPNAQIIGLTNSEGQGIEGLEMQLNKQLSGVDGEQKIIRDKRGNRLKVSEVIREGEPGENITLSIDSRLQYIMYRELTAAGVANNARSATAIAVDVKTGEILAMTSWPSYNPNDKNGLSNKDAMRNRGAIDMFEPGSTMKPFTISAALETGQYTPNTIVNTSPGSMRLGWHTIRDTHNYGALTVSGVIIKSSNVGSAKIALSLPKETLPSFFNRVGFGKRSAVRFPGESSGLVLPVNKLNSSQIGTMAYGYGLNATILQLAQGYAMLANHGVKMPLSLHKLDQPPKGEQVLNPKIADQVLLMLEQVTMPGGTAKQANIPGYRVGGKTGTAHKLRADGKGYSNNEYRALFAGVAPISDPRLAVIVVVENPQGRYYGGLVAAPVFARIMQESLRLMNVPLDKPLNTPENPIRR
The experiment in a line: Bocillin-FL fluorescence polarization competition binding, A. baumannii PBP3. The conditions noted are these: fluorescence polarization competition binding assay using Bocillin-FL; read-out: A. baumannii PBP3 Potency. In outline:
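Purified PBP was preincubated with inhibitor (E. coli PBP3 1.5 μM, 30 min; P. aeruginosa PBP3 0.75 μM, A. baumannii PBP3 0.2 μM and PBP1a 1 μM, 15 min), then Bocillin-FL (0.1 μM; 0.05 μM for PBP1a) added and FP read up to 60 min. EC50 = 50% loss of bound probe.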
In general terms: In fluorescence polarisation assays a small probe gives low polarisation when free and higher when bound to something large.

In experiment [8] the test system is P. aeruginosa CDC-0090. The experiment in a line: microbe, parasite or virus in culture. It is filed as cell-based. As to conditions: Pseudomonas aeruginosa, CDC0090, read-out: Minimum inhibitory concentration, P. aeruginosa CDC-0090.
Experiment [9] has as its system B. humptydooensis ATCC BAA-2767. Description: microbe, parasite or virus in culture. It counts as cell-based. The conditions noted are these: Burkholderia humptydooensis, ATCCBAA2767, read-out: Minimum inhibitory concentration (MIC), B. humptydooensis ATCC BAA-2767.
For experiment [10], the system named is A. baumannii CDC-0033. Description: microbe, parasite or virus in culture. It is filed as cell-based. The conditions noted are these: Acinetobacter baumannii, CDC0033, read-out: Minimum inhibitory concentration (MIC), A. baumannii CDC-0033.
The subject of experiment [11] is P. aeruginosa CDC-0095. Description: microbe, parasite or virus in culture. It is filed as cell-based. As to conditions: Pseudomonas aeruginosa, CDC0095, read-out: Minimum inhibitory concentration, P. aeruginosa CDC-0095.

Consider `O=C(O)c1c(F)ccc2c1OB(O)[C@@H](NC(=O)C(NC(=O)N1CCN(C3CCN(C(=O)Nc4ccc(F)c(O)c4F)CC3)C(=O)C1=O)c1cc(F)c(O)c(O)c1Cl)C2` (stereo partly drawn) [Example 486, (3R)-3-(2-(2-chloro-5-fluoro-3,4-dihydroxyphenyl)-2-(4-(1-((2,4-difluoro-3-hydroxyphenyl)carbamoyl)piperidin-4-yl)-2,3-dioxopiperazine-1-carboxamido)acetamido)-7-fluoro-2-hydroxy-3,4-dihydro-2H-benzo[e][1,2]oxaborinine-8-carboxylic acid], for which the MIC in experiment [1] was 2 to 4 µg/mL (≈ 2.39 to 4.78 µM); in experiment [2], below 1 µg/mL; in experiment [3], below 1 µg/mL; in experiment [4] it was below 1 µg/mL; in experiment [5], below 1 µg/mL; in [6], below 1 µg/mL. Also, the MIC is 2 to 4 µg/mL (≈ 2.39 to 4.78 µM) in experiment [8], 2 to 4 µg/mL (≈ 2.39 to 4.78 µM) in experiment [9], 2 to 4 µg/mL (≈ 2.39 to 4.78 µM) in experiment [10] and below 1 µg/mL in experiment [11]. Besides, the IC50 in experiment [7] was below 10 µM.
